Tests used:
CCR4 [1] = target: T1, CCR4 (Homo sapiens, UniProt P51679); experiment: CEM cell chemotaxis (migration) assay to CCL22 (MDC) in HBSS buffer with 0.1% BSA; format: cell-based; conditions: CEM cells in HBSS with 0.1% BSA; recombinant human CCL22 0.1 nM; 37° C. 60 minutes
T1 construct: CEM Cells Endogenous Express CCR4; endogenous in cells; host or cells: CEM cells
T1 sequence (P51679 1-360): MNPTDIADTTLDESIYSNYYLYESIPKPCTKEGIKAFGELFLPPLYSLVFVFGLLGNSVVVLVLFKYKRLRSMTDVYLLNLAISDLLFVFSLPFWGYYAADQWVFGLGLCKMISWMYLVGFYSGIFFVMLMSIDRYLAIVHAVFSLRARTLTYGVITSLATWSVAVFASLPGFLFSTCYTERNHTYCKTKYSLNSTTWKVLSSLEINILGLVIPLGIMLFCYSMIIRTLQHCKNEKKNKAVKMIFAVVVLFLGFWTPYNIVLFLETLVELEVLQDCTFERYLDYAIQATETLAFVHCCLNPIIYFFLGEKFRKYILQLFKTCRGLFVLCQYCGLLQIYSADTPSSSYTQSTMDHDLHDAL
Description: CEM Cells Endogenous Express CCR4
A chemotaxis assay can be used to determine the efficacy of potential receptor antagonists at blocking the migration mediated through chemokine receptors, such as CCR4. This assay is routinely performed using the ChemoTX® microchamber system with a 5 μm pore-sized polycarbonate membrane.
HBSS: CEM Cells are collected by centrifugation at 400×g at room temperature, then suspended at 5 million/ml in Hanks' Balanced Salt Solution (HBSS) buffer with 0.1% BSA. The compound being tested is serially diluted from a maximum final concentration of 10 μM (or an equivalent volume of its solvent (DMSO)) and is then added to the cell/buffer mixture. Separately, recombinant human CCL22 (MDC) at its EC50 concentration (0.1 nM) is placed in the lower wells of the ChemoTX® plate. The 5-μm (pore size) polycarbonate membrane was placed onto the plate, and 20 μL of the cell/compound mixture is transferred onto each well of the membrane. The plates are incubated at 37° C. for 60 minutes, after which the polycarbonate membranes are removed and 5 μl of the DNA-intercalating dye CyQUANT (Invitrogen, Carlsbad, CA) is added to the lower wells. The amount of fluorescence, corresponding to the number of migrated cells, is measured using a Spectrafluor Plus plate reader (TECAN, San Jose, CA).

CCR4 [2] = target: T1, CCR4; experiment: CEM cell chemotaxis (migration) assay to CCL22 (MDC) in 100% Fetal Bovine Serum (FBS); format: cell-based; conditions: CEM cells in 100% FBS with 1% HEPEs; recombinant human CCL22 0.1 nM; 37° C. 60 minutes
Outline: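 Endogenously CCR4-expressing CEM cells in 100% FBS with 1% HEPES were preincubated with serially diluted compound (top final 10 μM) and allowed to migrate through 5 μm polycarbonate membranes toward 0.1 nM human CCL22 (EC50) for 60 min at 37 °C. Migrated cells were quantified by CyQUANT fluorescence.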

Compound | IC50 (CCR4 [1]) [µM] | IC50 (CCR4 [2]) [µM]
Cc1nc(N2CCN(C(=O)[C@H]3CCCN3)CC2)nc(N[C@H](C)c2ccc(Cl)cc2Cl)c1Cl [Example 1.049] | < 0.1 | < 0.1
C[C@@H](Nc1nc(N2CCN(C(=O)[C@@H]3CCCN3C(=O)OC(C)(C)C)CC2)ncc1Cl)c1ccc(Cl)cc1Cl [Example 1.050] | 0.1 to 1 | > 1
C[C@@H](Nc1nc(N2CCN(C(=O)[C@H]3CCCN3C(=O)OC(C)(C)C)CC2)ncc1Cl)c1ccc(Cl)cc1Cl [Example 1.051] | 0.1 to 1 | 0.1 to 1
C[C@@H](Nc1nc(C2=CCN([C@H]3CCCN(CCO)C3)CC2)ncc1Cl)c1ccc(Cl)cc1Cl [Example 1.058] | < 0.1 | < 0.1
C[C@@H](Nc1nc(N2CCN(C(=O)N(C)C3CCNC3)CC2)ncc1Cl)c1ccc(Cl)cc1Cl (stereo partly drawn) [Example 1.059] | < 0.1 | < 0.1
C[C@@H](Nc1nc(N2CCC(NC(=O)[C@H]3CCNC3)CC2)ncc1Cl)c1ccc(Cl)cc1Cl [Example 1.061] | < 0.1 | < 0.1
CC(C)N(C(=O)C1CCNC1)C1CCN(c2ncc(Cl)c(N[C@H](C)c3ccc(Cl)cc3Cl)n2)CC1 (stereo partly drawn) [Example 1.062] | > 1 | > 1
CC(Nc1nc(N2CCC(C(=O)N(C)C3CCNC3)CC2)ncc1Cl)c1ccc(Cl)cc1Cl (stereo not drawn) [Example 1.065] | < 0.1 | < 0.1
Cc1cnc(N2CCN(C(=O)[C@H]3CCCN3)CC2)nc1N[C@H](C)c1ccc(Cl)cc1Cl [Example 1.071] | < 0.1 | < 0.1
C[C@@H](Nc1nc(N2CCN(C(=O)N(C)CCN(C)C)CC2)ncc1Cl)c1ccc(Cl)cc1Cl [Example 1.072] | < 0.1 | < 0.1
C[C@@H](Nc1nc(N2CCN(C(=O)[C@H]3CCC(=O)N3)CC2)ncc1Cl)c1cccc(Cl)c1 [Example 1.075] | > 1 | 0.1 to 1
CC(Nc1nc(N2CCN(C(=O)[C@H]3CCC(=O)N3)CC2)ncc1Cl)c1c(F)cc(Cl)cc1F (stereo partly drawn) [Example 1.076] | < 0.1 | < 0.1
C[C@@H]1CN(C(=O)[C@H]2CCC(=O)N2)CCN1c1ncc(Cl)c(N[C@H](C)c2ccc(Cl)cc2Cl)n1 [Example 1.078] | < 0.1 | < 0.1
C[C@@H](Nc1nc(N2CCN(C(=O)[C@H]3CCS(=O)(=O)N3)CC2)ncc1Cl)c1ccc(Cl)cc1Cl [Example 1.079] | < 0.1 | < 0.1
C[C@@H](Nc1nc(N2CCN(C(=O)[C@H]3CCCN3)CC2)nc(N)c1Cl)c1ccc(Cl)cc1Cl [Example 1.080] | < 0.1 | < 0.1
C[C@@H](Nc1nc(N2CCN(C(=O)[C@H]3CCC(=O)N3)C[C@@H]2C)ncc1Cl)c1ccc(Cl)cc1Cl [Example 1.081] | < 0.1 | < 0.1
CC(Nc1nc(N2CCN(C(=O)[C@H]3CCC(=O)N3)CC2)ncc1Cl)c1cc(F)c(Cl)cc1Cl (stereo partly drawn) [Example 1.082] | < 0.1 | < 0.1
C[C@@H](Nc1nc(N2CCN(C(=O)[C@H]3CCC(=O)N3)CC2)ncc1Cl)c1cc(Cl)cc(Cl)c1 [Example 1.083] | > 1 | > 1
C[C@H](Nc1nc(N2CCN(C(=O)[C@H]3CCC(=O)N3)CC2)ncc1Cl)c1cc(F)c(Cl)cc1Cl [Example 1.110] | > 1 | > 1
Cc1nc(N2CCN(C(=O)[C@H]3CCC(=O)N3)CC2)nc(N[C@H](C)c2ccc(Cl)cc2Cl)c1Cl [Example 1.113] | < 0.1 | < 0.1
C[C@@H](Nc1nc(N2CCC(NC(=O)C3CCOCC3)CC2)ncc1Cl)c1ccc(Cl)cc1Cl [Example 1.130] | 0.1 to 1 | > 1
C[C@@H](Nc1nc(N2CCC(NC(=O)[C@@H]3CNCCO3)CC2)ncc1Cl)c1ccc(Cl)cc1Cl [Example 1.131] | 0.1 to 1 | > 1
C[C@@H](Nc1nc(N2CCC(N3CC(=O)NC3=O)CC2)ncc1Cl)c1ccc(Cl)cc1Cl [Example 1.132] | > 1 | > 1
C[C@@H](Nc1nc(N2CCN(C(=O)[C@H]3CCN(C(N)=O)C3)CC2)ncc1Cl)c1ccc(Cl)cc1Cl [Example 1.134] | < 0.1 | < 0.1
C[C@@H](Nc1nc(N2CCN(C(=O)[C@H]3COCCN3)CC2)ncc1Cl)c1ccc(Cl)cc1Cl [Example 1.135] | < 0.1 | < 0.1
C[C@@H](Nc1nc(N2CCC(NC(=O)[C@H]3CC(F)(F)CN3)CC2)ncc1Cl)c1ccc(Cl)cc1Cl [Example 1.136] | > 1 | > 1
C[C@@H](Nc1nc(N2CCN(C(=O)[C@H]3CCC(=O)N3)CC2)ncc1Cl)c1ccc(Cl)cc1Cl [Example 1.148] | < 0.1 | < 0.1

Other lines, results leading:

IC50 (CCR4 [1]) [µM] | IC50 (CCR4 [2]) [µM] | Compound
< 0.1 | < 0.1 | C[C@@H](Nc1nc(N2CCN(C(=O)[C@H]3CCCN3CCO)CC2)ncc1Cl)c1ccc(Cl)cc1Cl [Example 1.046]
< 0.1 | < 0.1 | C[C@@H](Nc1nc(N2CCC(C3CCCN(CCO)C3)CC2)ncc1Cl)c1ccc(Cl)cc1Cl (stereo partly drawn) [Example 1.047]
< 0.1 | < 0.1 | C[C@@H](Nc1nc(N2CCN(C(=O)[C@H]3CCCN3CCC(=O)O)CC2)ncc1Cl)c1ccc(Cl)cc1Cl [Example 1.048]
< 0.1 | < 0.1 | C[C@@H](Nc1nc(N2CCN(C(=O)[C@@H]3CCCN3)CC2)ncc1Cl)c1ccc(Cl)cc1Cl [Example 1.052]
< 0.1 | < 0.1 | C[C@@H](Nc1nc(N2CCN(C(=O)[C@H]3CCCN3)CC2)ncc1Cl)c1ccc(Cl)cc1Cl [Example 1.053]
< 0.1 | < 0.1 | C[C@@H](Nc1nc(N2CCN(C3CCCN(CCC(=O)O)C3)CC2)ncc1Cl)c1ccc(Cl)cc1Cl (stereo partly drawn) [Example 1.054]
< 0.1 | < 0.1 | C[C@@H](Nc1nc(N2CCN(C3CCCNC3)CC2)ncc1Cl)c1ccc(Cl)cc1Cl (stereo partly drawn) [Example 1.055]
< 0.1 | < 0.1 | C[C@@H](Nc1nc(C2=CCN([C@H]3CCCN(CCC(N)=O)C3)CC2)ncc1Cl)c1ccc(Cl)cc1Cl [Example 1.056]
< 0.1 | < 0.1 | C[C@@H](Nc1nc(C2=CCN([C@H]3CCCN(CCC(=O)O)C3)CC2)ncc1Cl)c1ccc(Cl)cc1Cl [Example 1.057]
< 0.1 | < 0.1 | C[C@@H](Nc1nc(N2CCC(NC(=O)[C@H]3CCN(C)C3)CC2)ncc1Cl)c1ccc(Cl)cc1Cl [Example 1.060]
< 0.1 | < 0.1 | C[C@@H](Nc1nc(N2CCN(C3CCCN(CC(=O)O)C3)CC2)ncc1Cl)c1ccc(Cl)cc1Cl (stereo partly drawn) [Example 1.063]
< 0.1 | < 0.1 | C[C@@H](Nc1nc(N2CCC(N(CCO)C(=O)[C@H]3CCCN3)CC2)ncc1Cl)c1ccc(Cl)cc1Cl [Example 1.064]
< 0.1 | < 0.1 | C[C@@H](Nc1nc(N2CCN(C(=O)[C@@H]3CCN(C)C3)CC2)ncc1Cl)c1ccc(Cl)cc1Cl [Example 1.066]
< 0.1 | 0.1 to 1 | C[C@@H](Nc1nc(N2CCC(NC(=O)[C@@H]3CCN(C)C3)CC2)ncc1Cl)c1ccc(Cl)cc1Cl [Example 1.067]
< 0.1 | < 0.1 | CNC1CCN(C(=O)C2CCN(c3ncc(Cl)c(N[C@H](C)c4ccc(Cl)cc4Cl)n3)CC2)C1 (stereo partly drawn) [Example 1.068]
< 0.1 | < 0.1 | C[C@@H](Nc1nc(N2CCN(C(=O)[C@H]3C[C@@H](O)CN3)CC2)ncc1Cl)c1ccc(Cl)cc1Cl [Example 1.069]
< 0.1 | < 0.1 | C[C@@H](Nc1nc(N2CCN(C(=O)[C@@H]3CCNC3)CC2)ncc1Cl)c1ccc(Cl)cc1Cl [Example 1.070]
< 0.1 | < 0.1 | C[C@@H](Nc1nc(C2CCN(C3CCCN(CCC(=O)O)C3)CC2)ncc1Cl)c1ccc(Cl)cc1Cl (stereo partly drawn) [Example 1.077]
0.1 to 1 | > 1 | C[C@@H](Nc1nc(N2CCC(C(=O)N3CC[C@H](O)[C@@H](N(C)C)C3)CC2)ncc1Cl)c1ccc(Cl)cc1Cl [Example 1.133]
< 0.1 | < 0.1 | C[C@@H](Nc1nc(N2CCN(C(=O)[C@H]3CCNC3)CC2)ncc1Cl)c1ccc(Cl)cc1Cl [Example 1.150]
< 0.1 | < 0.1 | C[C@@H](Nc1nc(N2CCN(C(=O)[C@H]3CCCN3)[C@H](C(=O)O)C2)ncc1Cl)c1ccc(Cl)cc1Cl [Example 1.151]
